Measured values taken from patent US5608095A, “Alkyl-4-silyl-phenols and esters thereof as antiatherosclerotic agents” (Hoechst Marion Roussel, Inc., priority 1996, dated 1997).
Like-named read-outs stand apart in the source and are kept apart here.

What was measured:
[1] = Clinical chemistries in serum of rats; type: in vivo, male Sprague-Dawley rats; conditions: rat serum, 4 days; for response vs control in vivo at 0.3 % / response vs control in vivo at 0.1 %: po, 96 h
Outline: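 Male Sprague-Dawley rats (50-100 g, N=5/group) fed compound as 0.3% or 0.1% dietary admixture for 4 days vs untreated-chow controls. Non-fasted rats bled by cardiac puncture on day 5; fresh serum analysed on autoanalyzer for ALP, ALT, AST (units/L) and cholesterol, triglycerides, glucose (mg/dL).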

[2] = Food consumption, body and liver weight in cholesterol-fed rabbits; type: in vivo, female New Zealand White rabbits; conditions: diet 0.4%, 7 days; for body wt., percent of control / lw/bw (liver weight/body weight), percent of control: rabbit
Outline: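 Female New Zealand White rabbits fed 100 g/day of 0.2% cholesterol chow sprayed with compound (mostly 0.4%; some at 0.26% or 0.6%) from ethanol or diethyl ether:ethanol 3:2, for 7 days (14 days at 0.6%). Daily food intake, terminal body and liver weights recorded in grams.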

oxidation of lipids = test: Conjugated diene determination, rat serum; type: in vivo, male Sprague-Dawley rats; conditions: pooled rat serum, 4 days, mean of 2 determinations
From the text: A typical experiment consisted of 4-6 groups of rats (N=5 per group) with 1 group being a control which received no MDL compound and the other groups being treated with 0.3% MDL compound. Some of the compounds were either repeated at 0.3% or evaluated again at the lower dose of 0.1%. Male Sprague-Dawley rats, 50-100 g, (Harlan Laboratories, Indianapolis, Ind.) were housed in groups of 5, fed ad libitum water and Purina Rodent chow (#5002) with or without MDL compound as a dietary admixture for 4 days. Dietary admixtures (0.3%) were made by mixing 1.2 grams of an MDL compound with 400 grams of Purina rodent chow (#5002). The MDL compound was mixed with approximately 50 grams of food using a mortar and pestle. This was added to the remainder of the food and mixed for 3 hours on a rotary mixer. In the morning of day 5, non-fasted rats were anesthetized with carbon dioxide, and blood was collected by cardiac puncture. Rats were sacrificed by cervical dislocation. Body weights and liver weights were recorded in grams. Food consumption was recorded as grams.cndot.day^-1.cndot.rat^-1. Deaths were recorded as mortality. Aliquots of fresh serum were used for clinical chemistries, thiobarbituric acid reactive substances (TBARS) and conjugated diene measurements. Aliquots of serum (~0.5mL) and whole livers were frozen at -20° C. for compound and metabolite concentration determination at a later time.
Conjugated diene lag phase is another indicator of the oxidation of lipids. Lipids exposed to Cu^++ form conjugated dienes that absorb ultraviolet light in the range of 230 to 235 nm. The lag phase of diene formation gives an indication of the amount of oxidation of the lipids. A lag phase longer than control samples indicate inhibition of the oxidation. Conjugated diene lay phase was determined using a Varian DMS200 spectrophotometer (fitted with a constant temperature, 5 cuvette sample changer) at 30° C. Twenty (20) μL of pooled serum were added to cuvettes containing 3.0 mL phosphate buffered saline, pH 7.5, and mixed. The absorbances of all cuvettes were measured, and the instrument baseline was set to zero using the lowest absorbing sample. Next, 100 μL of 1 mmol CuSO4 were added and immediately mixed. The absorbance of each cuvette was recorded at 2 min intervals for a period of 840 min. The data were captured and transferred to a Microsoft EXCEL® spreadsheet where the curves were smoothed and differentials obtained. Lag times were determined mathematically as minutes. Serum samples were pooled (N=5); data presented are the mean values of 2 determinations. Serum samples from treated rats were compared to serum samples from control rats that received no MDL compound.

[3] = diet 0.3%, read-out: CHOL (total cholesterol), percent of control
[4] = diet 0.3%, read-out: TRIG (triglycerides), percent of control

## CC(C)(C)c1cc(OC[Si](C)(C)c2ccccc2)c(C(C)(C)C)cc1O [MDL 104,962, 2,5-Di-t-butyl-4-[(dimethylphenylsilyl)methyloxy]phenol]
[1]; [3]
  response vs control in vivo at 0.3 %: 99%
[1]; [4]
  response vs control in vivo at 0.3 %: 74%
[1]; diet 0.3%
  ALP (alkaline phosphatase), percent of control: 130%
  ALT (alanine aminotransferase), percent of control: 112%
  AST (aspartate aminotransferase), percent of control: 109%
  GLUC (glucose), percent of control: 91%
[2]
  food (grams eaten per day per rabbit), percent of control: 69%
  body wt., percent of control: 97%
  lw/bw (liver weight/body weight), percent of control: 71%
Oxidation of lipids; diet 0.3%
  CONJ. DIENE (conjugated diene lag phase): 320 min

## CC(=O)Oc1ccc(OC[Si](C)(C)c2ccccc2)cc1C(C)(C)C [MDL 105,443, 2-t-Butyl-4-[(dimethylphenylsilyl)methyloxy]phenol acetic acid ester]
[1]; diet 0.1%, read-out: CHOL (total cholesterol), percent of control
  response vs control in vivo at 0.1 %: 111%
[1]; diet 0.1%, read-out: TRIG (triglycerides), percent of control
  response vs control in vivo at 0.1 %: 111%
[1]; [3]
  response vs control in vivo at 0.3 %: 131%
[1]; [4]
  response vs control in vivo at 0.3 %: 126%
[1]; diet 0.1%
  ALP (alkaline phosphatase), percent of control: 101%
  ALT (alanine aminotransferase), percent of control: 116%
  AST (aspartate aminotransferase), percent of control: 94%
  GLUC (glucose), percent of control: 106%
[1]; diet 0.3%
  ALP (alkaline phosphatase), percent of control: 90%
  ALT (alanine aminotransferase), percent of control: 156%
  AST (aspartate aminotransferase), percent of control: 171%
  GLUC (glucose), percent of control: 98%
[2]
  food (grams eaten per day per rabbit), percent of control: 100%
  body wt., percent of control: 101%
  lw/bw (liver weight/body weight), percent of control: 90%
Oxidation of lipids; diet 0.1%
  CONJ. DIENE (conjugated diene lag phase): 151 min

## COc1ccc([Si](C)(C)COc2ccc(O)c(C(C)(C)C)c2)cc1 [MDL 106,834, 2-t-Butyl-4-[(dimethyl-p-methoxylphenylsilyl)methyloxy]phenol]
[1]; [3]
  response vs control in vivo at 0.3 %: 150%
[1]; [4]
  response vs control in vivo at 0.3 %: 83%
[1]; diet 0.3%
  ALP (alkaline phosphatase), percent of control: 69%
  ALT (alanine aminotransferase), percent of control: 141%
  AST (aspartate aminotransferase), percent of control: 122%
  GLUC (glucose), percent of control: 95%
[2]
  food (grams eaten per day per rabbit), percent of control: 99%
  body wt., percent of control: 99%
  lw/bw (liver weight/body weight), percent of control: 94%
Oxidation of lipids; diet 0.3%
  CONJ. DIENE (conjugated diene lag phase): 492 min
